One assay deals with TACE (Homo sapiens, UniProt P78536). The experiment in a line: TACE inhibition (fluorescent peptidyl substrate). It counts as biochemical. The note with it: for inhibition at 1 µM: read-out: % Inhibition at 1 uM.
For the next assay, the system named is THP-1 cells. The assay is described as follows: THP-1 Soluble Protein Assay (LPS-stimulated; ELISA of TNF-a, TNF-R p75/80, TNF-R p55/60, IL-8). The note with it: Homo sapiens. It counts as cell-based, human.
Setting [1] is: In Vitro Inhibition of TACE, 1 uM.
The mark [2] stands for this setting: Table 15: In Vitro Inhibition of TACE.
The mark [3] stands for this setting: THP-1, read-out: THP % inhibition @ 3 µM, 3 µM.

Structures are written as SMILES. Where two headings read alike, the source gives them in different places.

Chain of TACE (P78536 215-824): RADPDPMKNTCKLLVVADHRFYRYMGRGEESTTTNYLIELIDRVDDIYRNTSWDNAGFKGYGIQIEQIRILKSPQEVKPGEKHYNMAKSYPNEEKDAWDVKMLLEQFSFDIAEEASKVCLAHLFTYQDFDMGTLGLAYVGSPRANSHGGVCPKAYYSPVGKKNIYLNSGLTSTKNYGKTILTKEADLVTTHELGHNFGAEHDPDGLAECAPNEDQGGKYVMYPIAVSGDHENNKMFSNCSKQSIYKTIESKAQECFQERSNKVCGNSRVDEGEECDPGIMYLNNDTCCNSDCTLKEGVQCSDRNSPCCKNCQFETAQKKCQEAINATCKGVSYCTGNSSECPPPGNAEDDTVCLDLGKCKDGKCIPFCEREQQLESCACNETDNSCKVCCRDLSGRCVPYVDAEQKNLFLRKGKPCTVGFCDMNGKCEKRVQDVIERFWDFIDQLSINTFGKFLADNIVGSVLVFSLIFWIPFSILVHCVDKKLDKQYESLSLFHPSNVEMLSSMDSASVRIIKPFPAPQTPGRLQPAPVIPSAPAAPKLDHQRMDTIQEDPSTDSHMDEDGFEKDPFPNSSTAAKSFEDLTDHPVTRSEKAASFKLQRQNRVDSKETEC
Description for TACE: Using 96-well black microtiter plates, each well receives a solution composed of 10 µL TACE (final concentration 1µg/mL), 70µL Tris buffer, pH 7.4 containing 10% glycerol (final concentration 10 mM), and 10 µL of test compound solution in DMSO (final concentration 1µM, DMSO concentration <1%) and incubated for 10 minutes at room temperature.
The reaction is read (excitation 340 nm, emission 420 nm) for 10 min. and the increase in fluorescence over time is plotted as a linear line. The slope of the line is calculated and represents the reaction rate.
The linearity of the reaction rate is confirmed (r^2 >0.85). The mean (x±sem) of the control rate is calculated and compared for statistical significance (p<0.05) with drug-treated rates using Dunnett's multiple comparison test.
Description for THP-1 cells: Each vial of cells are cultured for about two weeks prior to being used for an assay and then are used for only 4 to 6 weeks to screen compounds.
Plates are placed into an incubator set at 5% CO2 and at 37° C. After 4 hours of incubation, 300 ml/well of tissue culture supernatant (TCS) is removed for use in an TNF-a ELISA.
Percent change in each soluble protein evaluated from the "vehicle positive control" was calculated for each compound concentration with the following formula: % Change =(pg/ml (compound) - pg/ml (veh pos control))/(pg/ml (veh pos control) - pg/ml (veh neg control))x 100 [formula]
For the soluble protein (TNF-a, p75/80, p55/60, IL-8) studies under stimulated conditions, the mean pg/ml of duplicate wells were determined and the results expressed as percent change from "vehicle positive control".

As to `CC#CCOc1ccc(S(=O)(=O)N[C@@H](Cc2ccc(OCc3ccccc3)cc2)C(=O)NO)cc1` [Example 103], the inhibition at 1 µM at TACE (setting [1]) came out at 52.8%.

For `CC#CCOc1ccc(S(=O)(=O)N[C@H](C(=O)NO)[C@@H](C)O)cc1` [Example 100], the inhibition at 1 µM on TACE was determined as 15.4%.

As to `CC#CCOc1ccc(S(=O)(=O)N[C@@H](COCc2ccccc2)C(=O)NO)cc1` [Example 97], the inhibition at 1 µM at TACE (setting [1]) was found to be 67.5%.

Turning to `CC#CCOc1ccc(S(=O)(=O)N[C@@H](C(=O)NO)C2CCCCC2)cc1` [Example 78], the inhibition at 1 µM at TACE (setting [1]) came to 101%.

In the case of `CC#CCOc1ccc(S(=O)(=O)N[C@@H](C)C(=O)NO)cc1` [Example 62B, L-2-(4-But-2-ynyloxy-benzenesulfonylamino)-N-hydroxy-propionamide], the inhibition at 1 µM on TACE worked out at 46.2%.

With `CC#CCOc1ccc(S(=O)(=O)N2CCC[C@@H]2C(=O)NO)cc1` [Example 82], at TACE (setting [1]), the inhibition at 1 µM was 98.4%.

Turning to `CC#CCOc1ccc(S(=O)(=O)N[C@H](CCCNC(=O)Oc2ccc(OC)cc2)C(=O)NO)cc1` [Example 372, 4-Methoxyphenyl (4R)-4-({[4-(but-2-ynyloxy)phenyl]sulfonyl}amino)-5-(hydroxyamino)-5-oxopentylcarbamate], the 50% inhibitory concentration (IC50) against TACE came out at 8.4 nM.

In the case of `CC#CCOc1ccc(S(=O)(=O)N[C@@H](Cc2ccccc2)C(=O)NO)cc1` [Example 94], the inhibition at 1 µM at TACE (setting [1]) was determined as 38.2%.

Consider `CC#CCOc1ccc(S(=O)(=O)N[C@@H](CCCNC(=N)N)C(=O)NO)cc1` [Example 64], for which, on TACE (setting [1]), the inhibition at 1 µM is 67.4%.

`CC#CCOc1ccc(S(=O)(=O)N[C@H](C(=O)NO)[C@@H](C)CC)cc1` [Example 89]: the inhibition at 1 µM on TACE (setting [1]) amounted to 56.8%.

Take `CC#CCOc1ccc(S(=O)(=O)N[C@H](C(=O)NO)c2ccccc2)cc1` [Example 95]: the inhibition at 1 µM at TACE (setting [1]) was 98.6%.

Regarding `CC#CCOc1ccc(S(=O)(=O)N[C@H](CC2CCCCC2)C(=O)NO)cc1` [Example 77], the inhibition at 1 µM at TACE (setting [1]) worked out at 105%.

Turning to `CC#CCOc1ccc(S(=O)(=O)N[C@H](CCCN)C(=O)NO)cc1` [Example 76], on TACE (setting [1]), the inhibition at 1 µM came out at 29.7%.

Regarding `CC#CCOc1ccc(S(=O)(=O)N[C@@H](CC(N)=O)C(=O)NO)cc1` [Example 66], the inhibition at 1 µM on TACE (setting [1]) came out at 45.6%.

Consider `CC#CCOc1ccc(S(=O)(=O)N[C@H](CSCc2ccc(OC)cc2)C(=O)NO)cc1` [Example 302], for which the inhibition at 1 µM at TACE (setting [1]) amounted to 3%.

As to `CC#CCOc1ccc(S(=O)(=O)N[C@H](Cc2ccccc2)C(=O)NO)cc1` [Example 81], the inhibition at 1 µM at TACE (setting [1]) amounted to 106%.

For the compound `CC#CCOc1ccc(S(=O)(=O)N[C@@H](CC(=O)OC2CCCCC2)C(=O)NO)cc1` [Example 68], the inhibition at 1 µM on TACE (setting [1]) worked out at 70.4%.

Regarding `CC#CCOc1ccc(S(=O)(=O)N[C@H](Cc2ccc(O)cc2)C(=O)NO)cc1` [Example 84], the inhibition at 1 µM on TACE (setting [1]) amounted to 101%.

Consider `CC#CCOc1ccc(S(=O)(=O)N[C@@H](CC(=O)O)C(=O)NO)cc1` [Example 67], for which, at TACE (setting [1]), the inhibition at 1 µM is 46.2%.

On to `CC#CCOc1ccc(S(=O)(=O)N[C@@H](CC)C(=O)NO)cc1` [Example 63], for which the inhibition at 1 µM on TACE (setting [1]) stood at 47.6%.

For the compound `CC#CCOc1ccc(S(=O)(=O)N[C@H](C(=O)NO)C(C)C)cc1` [Example 104], on TACE, the inhibition at 1 µM was determined as 38.5%.

Consider `CC#CCOc1ccc(S(=O)(=O)N[C@H](C(=O)NO)[C@@H](C)OCc2ccccc2)cc1` [Example 99], for which, at TACE (setting [1]), the inhibition at 1 µM is 28.5%.

For the compound `CC#CCOc1ccc(S(=O)(=O)N[C@H](Cc2c[nH]c3ccccc23)C(=O)NO)cc1` [Example 83], the inhibition at 1 µM at TACE (setting [1]) was 105%.

As for `CC#CCOc1ccc(S(=O)(=O)N[C@@H](CCCC)C(=O)NO)cc1` [Example 93], at TACE (setting [1]), the inhibition at 1 µM came to 61.7%.

On to `CC#CCOc1ccc(S(=O)(=O)N[C@@H](CCN)C(=O)NO)cc1` [Example 70], for which the inhibition at 1 µM on TACE (setting [1]) was found to be 21.1%.

Consider `CC#CCOc1ccc(S(=O)(=O)N[C@@H](Cc2c[nH]c3ccccc23)C(=O)NO)cc1` [Example 101], for which the inhibition at 1 µM on TACE (setting [1]) was found to be 30.2%.

In the case of `CC#CCOc1ccc(S(=O)(=O)N[C@@H](CC2CCCCC2)C(=O)NO)cc1` [Example 71], the inhibition at 1 µM on TACE (setting [1]) is 86.7%.

In turn, `CC#CCOc1ccc(S(=O)(=O)N[C@H](Cc2ccc(F)c(F)c2)C(=O)NO)cc1` [Example 315] showed a 50% inhibitory concentration (IC50) at TACE (setting [2]) of 5.7 nM.

For the compound `CC#CCOc1ccc(S(=O)(=O)N[C@@H](CCCCN)C(=O)NO)cc1` [Example 92], the inhibition at 1 µM on TACE (setting [1]) was 102%.

Take `CC#CCOc1ccc(S(=O)(=O)N[C@@H](CCCNC(N)=NS(=O)(=O)c2ccc(C)cc2)C(=O)NO)cc1` [Example 65]: the inhibition at 1 µM on TACE (setting [1]) was 102%.

Take `CC#CCOc1ccc(S(=O)(=O)N[C@@H](CSCc2ccc(OC)cc2)C(=O)NO)cc1` [Example 74]: the inhibition at 1 µM at TACE (setting [1]) came out at 73.8%.

As for `CC#CCOc1ccc(S(=O)(=O)N[C@@H](CSC(C)(C)C)C(=O)NO)cc1` [Example 73], the inhibition at 1 µM on TACE (setting [1]) was found to be 79%. For the same compound, half-maximal inhibition against TACE (setting [2]) (IC50) required 451 ± 31 nM.

Take `CC#CCOc1ccc(S(=O)(=O)NCCC(=O)NO)cc1` [Example 69]: the inhibition at 1 µM on TACE came to 48.5%.

As for `CC#CCOc1ccc(S(=O)(=O)N[C@H](CC(C)C)C(=O)NO)cc1` [Example 79], the inhibition at 1 µM on TACE (setting [1]) was found to be 107%. This compound came in with an IC50 against TACE (setting [2]) of 5.7 ± 2.5 nM.

With `CC#CCOc1ccc(S(=O)(=O)N[C@@H](CCC(=O)O)C(=O)NO)cc1` [Example 86], at TACE (setting [1]), the inhibition at 1 µM is 37.5%.

As to `CC#CCOc1ccc(S(=O)(=O)N[C@H](C(=O)NO)C2CCCCC2)cc1` [Example 72], the inhibition at 1 µM on TACE (setting [1]) worked out at 57.4%.

With `CC#CCOc1ccc(S(=O)(=O)N[C@@H](CSCNC(C)=O)C(=O)NO)cc1` [Example 96], the inhibition at 1 µM at TACE (setting [1]) stood at 22%.

Consider `CC#CCOc1ccc(S(=O)(=O)N2C[C@H](OCc3ccccc3)C[C@H]2C(=O)NO)cc1` [Example 88], for which the inhibition at 1 µM at TACE (setting [1]) was determined as 8.4%.

Take `CC#CCOc1ccc(S(=O)(=O)N[C@@H](Cc2ccc(O)cc2)C(=O)NO)cc1` [Example 102]: the inhibition at 1 µM at TACE (setting [1]) was found to be 27.3%.

As to `CC#CCOc1ccc(S(=O)(=O)N[C@H](CC(=O)O)C(=O)NO)cc1` [Example 298], the inhibition at 1 µM at TACE (setting [1]) is 40%.

As for `CC#CCOc1ccc(S(=O)(=O)N[C@@H](CO)C(=O)NO)cc1` [Example 98], the inhibition at 1 µM at TACE (setting [1]) stood at 2.5%.

Regarding `CC#CCOc1ccc(S(=O)(=O)N[C@@H](Cc2cnc[nH]2)C(=O)NO)cc1` [Example 87], the inhibition at 1 µM on TACE (setting [1]) worked out at 47.8%.

As to `CC#CCOc1ccc(S(=O)(=O)N[C@H](CC(N)=O)C(=O)NO)cc1` [Example 75], on TACE (setting [1]), the inhibition at 1 µM worked out at 55.8%.

Regarding `CC#CCOc1ccc(S(=O)(=O)N(CCCCN2CCN(C)CC2)C(C(=O)NO)C(C)C)cc1` (centres unmarked) [Example 122, 2-{{[4-(2-Butynyloxy)phenyl]sulfonyl}[4-(4-methyl-1-piperazinyl)butyl]amino}-N-hydroxy-3-methylbutanamide], the IC50 on TACE (read-out: TACE IC50) was 126 nM. In the assay on THP-1 cells (setting [3]), the inhibition at 3 µM turned out to be 69%.

In the case of `CC#CCOc1ccc(S(=O)(=O)N(C)C(C(=O)NO)c2ccc(OCCCNC(=O)OC(C)(C)C)cc2)cc1` (centres unmarked) [Example 187, tert-Butyl 3-{4-[1-[{[4-(2-butynyloxy)phenyl]sulfonyl}(methyl)amino]-2-(hydroxyamino)-2-oxoethyl]phenoxy}propylcarbamate], the inhibition at 3 µM with THP-1 cells (setting [3]) is 91%.

On to `CC#CCOc1ccc(S(=O)(=O)N2CCCS(=O)(=O)C[C@@H]2C(=O)NO)cc1` [Example 175], for which, in the assay on THP-1 cells (THP-1, 3 µM, read-out: THP % Inhibition @ 3µM), the inhibition at 3 µM worked out at 83%.

As to `CC#CCOc1ccc(S(=O)(=O)N2CCN(C(=O)N3CCCC3)CC2C(=O)NO)cc1` (centres unmarked) [Example 217, 1-(4-But-2-ynyloxy-benzenesulfonyl)-4-(pyrrolidine-1-carbonyl)-piperazine-2-carboxylic acid hydroxyamide], in the assay with THP-1 cells (setting [3]), the inhibition at 3 µM was determined as 73%.

Take `CC#CCOc1ccc(S(=O)(=O)N(C)C(C(=O)NO)C(C)(C)SCCN2CCCC2)cc1` (centres unmarked) [Example 143, 2-({[4-(2-Butynyloxy)phenyl]sulfonyl)(methyl)amino]-N-hydroxy-3-methyl-3-{[2(1-pyrrolidinyl)ethyl]sulfanyl}butanamide]: the inhibition at 3 µM with THP-1 cells (setting [3]) is 86%.

Turning to `CC#CCOc1ccc(S(=O)(=O)N(C)C(C(=O)NO)c2ccc(OCCCNC(=O)OCC)cc2)cc1` (centres unmarked) [Example 193, Ethyl 3-{4-[1-[{[4-(2-butynyloxy)phenyl]sulfonyl}(methyl)amino]-2-(hydroxyamino)-2-oxoethyl]phenoxy}propylcarbamate], the inhibition at 3 µM in the assay with THP-1 cells (setting [3]) worked out at 91%.

`C#CCN(C(C(=O)NO)C(C)C)S(=O)(=O)c1ccc(OCC#CC)cc1` (centres unmarked) [Example 109, 2-[{[4-(2-Butynyloxy)phenyl]sulfonyl}(2-propynyl)amino]-N-hydroxy-3-methylbutanamide]: in the assay with THP-1 cells (setting [3]), the inhibition at 3 µM stood at 85%.

`CC#CCOc1ccc(S(=O)(=O)N[C@H](CCSC)C(=O)NO)cc1` [Example 80]: the inhibition at 1 µM on TACE (setting [1]) was 105%.

Turning to `CC#CCOc1ccc(S(=O)(=O)N(C)C(C(=O)NO)c2ccc(OCCN3CCN(C(=O)OC(C)(C)C)CC3)cc2)cc1` (centres unmarked) [Example 185, tert-butyl 4-(2-{4-[1-[{[4-(2-butynyloxy)phenyl]sulfonyl}(methyl)amino]-2-(hydroxyamino)-2-oxoethyl]phenoxy}ethyl)-1-piperazinecarboxylate], the inhibition at 3 µM in the assay on THP-1 cells (setting [3]) amounted to 89%.

For the compound `CC#CCOc1ccc(S(=O)(=O)N[C@@H](CC(C)C)C(=O)NO)cc1` [Example 90], on TACE (setting [1]), the inhibition at 1 µM came to 58.9%.

Turning to `CC#CCOc1ccc(S(=O)(=O)NC(C(=O)NO)c2ccc(OCCN(C)C)cc2)cc1` (centres unmarked) [Example 207, 2-({[4-(2-Butynyloxy)phenyl]sulfonyl}amino){4-[2-(dimethylamino)ethoxy]phenyl}-N-hydroxyacetamide], in the assay with THP-1 cells (setting [3]), the inhibition at 3 µM worked out at 51%.

With `CC#CCOc1ccc(S(=O)(=O)N(C)C(C(=O)NO)C(C)(C)SC)cc1` (centres unmarked) [Example 149, 2-[(4-But-2-ynyloxy-benenesulfonyl)-methyl-amino]-N-hydroxy-3-methyl-3-methylsulfanyl-butyramide], the inhibition at 3 µM in the assay on THP-1 cells (setting [3]) is 88%.

Consider `CC(=O)OCC#CCOc1ccc(S(=O)(=O)N2CCSC(C)(C)[C@@H]2C(=O)NO)cc1` [Example 261, 4-[4-({(3S)-3-[(Hydroxyamino)carbonyl]-2,2-dimethylthiomorpholinyl}suffonyl)phenoxy]-2-butynyl acetate], for which the inhibition at 3 µM in the assay on THP-1 cells (setting [3]) stood at 92%.

Source of the values: patent EP1144368B1, “ACETYLENIC ALPHA-AMINO ACID-BASED SULFONAMIDE HYDROXAMIC ACID TACE INHIBITORS” (priority 1999, dated 2000).
